Experiments:
[1] = target: human GABAA α5β2γ1 receptor (Homo sapiens (Human), UniProt P31644+Q8N1C3); experiment: Radioligand binding assay for γ1-containing GABAA subtypes, [3H]RO7239181 competition (α5β2γ1)
Procedure: (§1) The affinity of compounds at GABAA γ1 subunit-containing receptors was measured by competition for [^3H]RO7239181 (67.3 Ci/mmol; Roche) binding to membranes from HEK293F cells (ThermoFisher R79007) expressing human (transiently transfected) receptors of composition α5β2γ1, α2β2γ1, α1β2γ1.
(§2) Harvested pellets from HEK293F cells expressing the different GABAA receptor subtypes were resuspended in Mannitol Buffer pH 7.2-7.4 (Mannitol 0.29 M, Triethylamine 10 mM, Acetic acid 10 mM, EDTA 1 mM plus protease inhibitors (20 tablets Complete, Roche Diagnostics Cat. No. 05 056 489 001 per liter)), washed two times and then resuspended at 1:10 to 1:15 dilution in the same buffer. Cell disruption was performed by stirring the suspension in a Parr vessel #4637 at 435 psi for 15 minutes, and then the suspensions were centrifuged at 1000×g for 15 minutes at 4° C. (Beckman Avanti J-HC; rotor JS-4.2). The supernatant (S1) was transferred in a 2 l Schott flask and the pellet (P1) was resuspended with Mannitol Buffer up to 175 ml. The resuspended pellet was transferred into a 250 ml Corning centrifugal beaker and centrifuged at 1500×g for 10 minutes at 4° C. (Beckman Avanti J-HC; rotor JS-4.2). The supernatant (S1) was then transferred in the 2 l Schott flask and the pellet was discarded. The supernatants (S1) were centrifuged in 500 ml Beckman polypropylene centrifugal beaker at 15′000×g for 30 minutes at 4° C. (Beckman Avanti J-20 XP; rotor JLA-10.500). The pellet (P2) was resuspended with Mannitol Buffer 1:1 and frozen at −80° C. The supernatant (S2) was centrifuged in 100 ml Beckman polypropylene centrifugal tubes at 48000×g for 50 minutes at 4° C. (Beckman Avanti J-20 XP; rotor JA-18). The supernatant (S3) was discarded and the pellet (P3) was resuspended with 1:1 Mannitol Buffer. The P2 and P3 protein concentration was determined with the BIORAD Standard assay method with bovine serum albumin as standard and measured on the NANO-Drop 1000. The membrane suspension was aliquots (500 μl per tube) and stored at −80° C. until required.
(§3) Membrane homogenates were resuspended and polytronised (Polytron PT1200E Kinematica AG) in Potassium Phosphate 10 mM, KCl 100 mM binding buffer at pH 7.4 to a final assay concentration determined with a previous experiment.
(§4) Assays were incubated to equilibrium for 1 hour at 4° C. and then, membranes were filtered onto unifilter (96-well white microplate with bonded GF/C filters preincubated 20-50 minutes in 0.3% Polyethylenimine) with a Filtermate 196 harvester (Packard BioScience) and washed 4 times with cold Potassium Phosphate 10 mM pH 7.4, KCl 100 mM binding buffer. After anhydrousing, filter-retained radioactivity was detected by liquid scintillation counting. Ki values were calculated using Excel-Fit (Microsoft) and are the means of two determinations.

[2] = target: α2β2γ1 GABAA receptor subtype (Homo sapiens (Human), UniProt P47869+Q8N1C3); experiment: Two-electrode voltage clamp electrophysiology in Xenopus oocytes expressing GABAA receptors (modulation of GABA EC20 current); type: cell-based; conditions: for Efficacy (GABA)%: % modulation of GABA EC20 = 100*(Fold increase-1), α2β2γ1 oocytes, compound at approx. 30-fold Ki; for Fold increase h-GABA-A α2β2γ1 oocyte @ 30-fold Ki: Xenopus oocytes expressing α2β2γ1, compound at approx. 30-fold its Ki α2β2γ1, GABA EC20 current
Procedure: Xenopus laevis oocytes at maturation stages V-VI were used for the expression of cloned mRNA encoding GABAA receptor subunits. Oocytes ready for RNA micro-injection were bought from Ecocyte, Castrop-Rauxel, Germany and stored in modified Barth's medium (composition in mM: NaCl 88, KCl 1, NaHCO3 2.4, HEPES 10, MgSO4 0.82, CaNO3 0.33, CaCl2 0.33, pH=7.5) at 20° C. until the experiment.
Oocytes were plated in 96-well plates for microinjection using the Roboinject automated instrument (MultiChannelSystems, Reutlingen, Germany). Approximately 50 nL of an aqueous solution containing the RNA transcripts for the subunits of the desired GABAA receptor subtype was injected into each oocyte. […] Oocytes were kept in modified Barth's medium (composition in mM: NaCl 88, KCl 1, NaHCO3 […], HEPES 10, MgSO4 0.82, CaNO3 0.33, CaCl2 0.33, pH=7.5) at 20° C. until the experiment.
Electrophysiological experiments were performed using the Roboocyte instrument (MultiChannelSystems, Reutlingen, Germany) on days 3 to 5 after the micro-injection of mRNA. During the experiment the oocytes were constantly superfused by a solution containing (in mM) NaCl 90, KCl 1, HEPES 5, MgCl2 1, CaCl2 1 (pH 7.4). Oocytes were impaled by two glass microelectrodes (resistance: 0.5-0.8 MΩ) which were filled with a solution containing KCl 1M+K-acetate 1.5 M and voltage-clamped to −80 mV. The recordings were performed at room temperature using the Roboocyte two-electrode voltage clamp system (Multichannelsystem). After an initial equilibration period of 1.5 min GABA was added for 1.5 min at a concentration evoking approximately 20% of a maximal current response (EC20). After another rest interval of 2.5 min GABA was again added evoking a response of similar amplitude and shape. […] Current traces were recorded at a digitization rate of 10 Hz during and shortly before and after the GABA application.
Each compound and concentration was tested on at least 3 oocytes. Different oocytes were used for different compound concentrations.
For the analysis, the digitized current traces of the first and second GABA response were superimposed and, if necessary, rescaled to equal maximal amplitudes. The ratio between the two responses during the time interval of test compound application was calculated point by point. The extremum of the resulting “ratio trace” was taken as the efficacy (“Fold increase”) of the compound expressed as “% modulation of GABA EC20” (100*(Fold increase-1)).

[3] = target: human GABAA α2β2γ1 receptor (Homo sapiens (Human), UniProt P47869+Q8N1C3); experiment: Radioligand binding assay for γ1-containing GABAA subtypes, [3H]RO7239181 competition (α2β2γ1)
Procedure: as §1, §2, §3, §4

[4] = target: human GABAA α1β3γ2 receptor (Homo sapiens (Human), UniProt P14867+P18507); experiment: Radioligand binding assay for γ2-containing GABAA subtypes, [3H]Flumazenil competition (α1β3γ2); conditions: for γ2/γ1 Selectivity Ratio: Ki α1β3γ2 (nM)/Ki α2β2γ1 (nM); for LogSel: Log[Ki α1β3γ2 (nM)/Ki α2β2γ1 (nM)]
Procedure: The affinity of compounds at GABAA γ2 subunit-containing receptors was measured by competition for [^3H]Flumazenil (81.1 Ci/mmol; Roche) binding to HEK293F cells expressing human (transiently transfected) receptors of composition α1β3γ2.
Harvested pellets from HEK293F cells expressing the different GABAA γ2 receptor subtypes were resuspended in Mannitol Buffer pH 7.2-7.4 and processed as described above for the cells expressing the GABAA γ1 subunit-containing receptors.
Assays were incubated to equilibrium for 1 hour at 4° C. and harvested onto GF/C uni-filters (Packard) by filtration using a Packard harvester and washing with ice-cold wash buffer (50 mM Tris; pH 7.5). After anhydrousing, filter-retained radioactivity was detected by liquid scintillation counting. Ki values were calculated using Excel-Fit (Microsoft) and are the means of two determinations.

[5] = Ki h-GABAA α2β2γ1, [3H]RO7239181 competition binding, human GABAA α2β2γ1
[6] = Ki h-GABAA α2β2γ1, displacement of [3H]RO7239181, membranes of HEK293F cells expressing human receptors, means of two determinations

Row | SMILES | Ki [1] | Efficacy (GABA)% [2] | Fold increase h-GABA-A α2β2γ1 oocyte @ 30-fold Ki [2] | Ki [3, 5] | Ki [3, 6] | Ki [4] | γ2/γ1 Selectivity Ratio [4] | LogSel [4]
1 | C[C@@H]1N=C(c2c(F)cccc2F)c2c(ccc(Cl)c2Cl)-n2nc(C(=O)N3CC(C(F)F)C3)nc21 [Example 75, [3-(difluoromethyl)azetidin-1-yl]-[(4S)-7,8-dichloro-6-(2,6-difluorophenyl)-4-methyl-4H-[1,2,4]triazolo[1,5-a][1,4]benzodiazepin-2-yl]methanone] | 1.14 nM | 41% | 1.41 | 13.8 nM | 13.8 nM | 737 nM | 53.4 | 1.73
2 | O=C(NC1COC1)c1nc2n(n1)-c1ccc(Cl)c(Cl)c1C(c1c(F)cccc1F)=NC2 [Example 10, 7,8-dichloro-6-(2,6-difluorophenyl)-N-(oxetan-3-yl)-4H-[1,2,4]triazolo[1,5-a][1,4]benzodiazepine-2-carboxamide] | 0.79 nM | 70% | 1.70 | 3.1 nM | 3.06 nM | 445 nM | 145.5 | 2.16
3 | COC1CN(C(=O)c2nc3n(n2)-c2ccc(Cl)c(Cl)c2C(c2ncccc2F)=N[C@H]3C)C1 [Example 38, [(4S)-7,8-dichloro-6-(3-fluoro-2-pyridyl)-4-methyl-4H-[1,2,4]triazolo[1,5-a][1,4]benzodiazepin-2-yl]-(3-methoxyazetidin-1-yl)methanone] | 4.46 nM | 116% | 2.16 | 28.2 nM | 28.2 nM | 2200 nM | 77.8 | 1.89
4 | C[C@@H]1N=C(c2ncccc2F)c2c(ccc(C(F)(F)F)c2Cl)-n2nc(C(=O)N3CC4(CCCO4)C3)nc21 [Example 113, [(4S)-7-chloro-6-(3-fluoro-2-pyridyl)-4-methyl-8-(trifluoromethyl)-4H-[1,2,4]triazolo[1,5-a][1,4]benzodiazepin-2-yl]-(5-oxa-2-azaspiro[3,4]octan-2-yl)methanone] | 7.04 nM | 76% | 1.76 | 18.9 nM | 18.9 nM | 11400 nM | 604.3 | 2.78
5 | C[C@@H]1N=C(c2c(F)cccc2F)c2c(ccc(Cl)c2Cl)-n2nc(C3CC3)nc21 [Example 49, (4S)-7,8-dichloro-2-cyclopropyl-6-(2,6-difluorophenyl)-4-methyl-4H-[1,2,4]triazolo[1,5-a][1,4]benzodiazepine] | 1.41 nM | 75% | 1.75 | 15.7 nM | 15.7 nM | 619 nM | 39.5 | 1.60
6 | C[C@@H]1N=C(c2c(F)cccc2F)c2c(ccc(Cl)c2Cl)-n2cc(C(=O)N3CC(C#N)C3)nc21 [Example 71, 1-[(4S)-7,8-dichloro-6-(2,6-difluorophenyl)-4-methyl-4H-imidazo[1,2-a][1,4]benzodiazepine-2-carbonyl]azetidine-3-carbonitrile] | 1.84 nM | 51% | 1.51 | 11.9 nM | 11.9 nM | 389 nM | 32.8 | 1.52
7 | C[C@@H]1N=C(c2ncccc2F)c2c(ccc(C(F)(F)F)c2Cl)-n2nc(C(=O)N3CC(C(F)F)C3)nc21 [Example 142, [(4S)-7-chloro-6-(3-fluoro-2-pyridyl)-4-methyl-8-(trifluoromethyl)-4H-[1,2,4]triazolo[1,5-a][1,4]benzodiazepin-2-yl]-[3-(difluoromethyl)azetidin-1-yl]methanone] | 8.06 nM | 123% | 2.23 | 39.7 nM | 39.7 nM | > 30000 nM | 756.0 | 2.88
8 | C[C@@H]1N=C(c2c(F)cccc2F)c2c(ccc(C(F)(F)F)c2Cl)-n2nc(NC(=O)N3C4CC3CS(=O)(=O)C4)nc21 (single isomer, unassigned) [Example 134] | 2.36 nM | 101% | 2.01 | 19.3 nM | 19.3 nM | 1480 nM | 76.7 | 1.88
9 | C[C@@H]1N=C(c2c(F)cccc2F)c2c(ccc(Cl)c2Cl)-n2nc(C(=O)N3CC(CF)C3)nc21 [Example 72, [3-(fluoromethyl)azetidin-1-yl]-[(4S)-7,8-dichloro-6-(2,6-difluorophenyl)-4-methyl-4H-[1,2,4]triazolo[1,5-a][1,4]benzodiazepin-2-yl]methanone] | 1.1 nM | 44% | 1.44 | 7.2 nM | 7.2 nM | 727 nM | 100.6 | 2.00
